This note sets out measurements from ChEMBL document CHEMBL1132906, “Squalamine analogues as potential anti-trypanosomal and anti-leishmanial compounds” (2000).

Assay [1] can be described thus: The compound was evaluated for its toxicity against KB cells. The conditions noted are these: Homo sapiens, read-out: ED50 (the source's name). The format is functional.
In the next assay the test system is Leishmania donovani. Description: The compound was evaluated for its inhibitory activity against Leishmania donovani. Format: functional. The conditions noted are these: read-out: ED50 (the source's name).
Assay [2] deals with Trypanosoma cruzi. Description: The compound was evaluated for its inhibitory activity against Trypanosoma cruzi. The format is functional. The conditions noted are these: read-out: ED50 (the source's name).
The test system of assay [3] is Trypanosoma brucei. Description: The compound was evaluated for its inhibitory activity against Trypanosoma brucei (indicate results of two experiments). The format is functional. The conditions noted are these: read-out: ED50 (the source's name).
Assay [4] deals with Trypanosoma brucei. Description: The compound was evaluated for the inhibition of Trypanosoma brucei at 1 (ug/ml). The format is functional.
The test system of assay [5] is Trypanosoma brucei. Description: The compound was evaluated for its inhibitory activity against Trypanosoma brucei. Format: functional. The conditions noted are these: read-out: ED50 (the source's name).
Assay [6] relates to Trypanosoma cruzi. Description: The compound was evaluated for its inhibitory activity against Trypanosoma cruzi (toxic effect on macrophages). Format: functional. The conditions noted are these: read-out: ED50 (the source's name).
The test system of assay [7] is Mus musculus. Description: Inhibitory activity (in vivo) against mice infected with Trypanosoma rhodesiense after intraperitoneal administration of compound (50 mg/kg for 4 days); No effect. The format is functional, organism-based.
Assay [8] deals with Mus musculus. Description: Percent reduction (in vivo) against mice infected with Leishmania donovani after intraperitoneal administration of compound (50 mg/kg for 5 days). Format: functional.

Molecules are shown by their SMILES. pEC50: −log10 of the molar value. Values joined by “and” are separate entries in the source; they are usually repeats but may differ in a detail not shown here. Identical values can stand only once. Active and inactive are the calls of the source. No cut-off for these calls is given here. A value given as a limit tells only on which side of the number the result lay.

Turning to `CC(C(=O)NCCCN(CCCCN(CCCNC(=O)OC(C)(C)C)C(=O)OC(C)(C)C)C(=O)OC(C)(C)C)[C@H]1CCC2C3CC=C4C[C@@H](O)CC[C@]4(C)C3CC[C@@]21C` (stereo partly drawn), the pEC50 in assay [1] was 4.57; in the assay with Leishmania donovani, 4.90; in the assay on Trypanosoma cruzi [2], below 4.44; with Trypanosoma brucei [3] it was 6.22.

Consider `CC(C(=O)NCCCNCCCCN)[C@H]1CCC2C3CC=C4C[C@@H](OS(=O)(=O)O)CC[C@]4(C)C3CC[C@@]21C` (stereo partly drawn), for which the pEC50 is below 3.28 in assay [1], 4.40 in the assay with Leishmania donovani, 4.87 with Trypanosoma cruzi [2] and below 4.28 in the assay on Trypanosoma brucei [3].

A word on the Inhibition: it is the drop in the measured response relative to a control, in per cent. On to `N=C(N)c1ccc(OCCCCCOc2ccc(C(=N)N)cc2)cc1` [PENTAMIDINE], for which the Inhibition in the assay on Trypanosoma brucei [4] was found to be 100%.

Consider `CC(=O)O[C@H]1CC[C@@]2(C)C(=CCC3C2CC[C@@]2(C)C3CC[C@@H]2C(C)C(=O)NCCCN(CCCCN(CCCNC(=O)OC(C)(C)C)C(=O)OC(C)(C)C)C(=O)OC(C)(C)C)C1` (stereo partly drawn), for which the pEC50 in assay [1] is 4.51; with Leishmania donovani it was 5.33; in the assay with Trypanosoma cruzi [2], below 4.47; with Trypanosoma brucei [5] (Trypanosoma brucei), 5.96; in the assay on Trypanosoma brucei [5], 6.24.

Regarding `CC(C(=O)NCCCN(CCCCNC(=O)OC(C)(C)C)C(=O)OC(C)(C)C)[C@H]1CCC2C3CC=C4C[C@@H](OS(=O)(=O)O)CC[C@]4(C)C3CC[C@@]21C` (stereo partly drawn), the pEC50 is below 3.44 in assay [1], 5.31 with Leishmania donovani, below 4.44 in the assay on Trypanosoma cruzi [6] and below 4.44 in the assay on Trypanosoma brucei [3].

As for `CC(C(=O)NCCCNCCCCNCCCN)[C@H]1CCC2C3CC=C4C[C@@H](O)CC[C@]4(C)C3CC[C@@]21C` (stereo partly drawn), the pEC50 in assay [1] was 4.82; in the assay on Leishmania donovani it was 5.30; with Trypanosoma cruzi [6], below 4.24; in the assay on Trypanosoma brucei [5] (Trypanosoma brucei) it was 6.25; in the assay with Trypanosoma brucei [5], 5.96. Further, in the assay on Mus musculus [7], the result was inactive. Besides, the Reduction with Mus musculus [8] is 16%.

In the case of `O=C(Cn1ccnc1[N+](=O)[O-])NCc1ccccc1` [BENZNIDAZOLE], the EC50 with Trypanosoma cruzi [2] turned out to be 7.45 µg/mL.

For the compound `CC(=O)O[C@H]1CC[C@@]2(C)C(=CCC3C2CC[C@@]2(C)C3CC[C@@H]2C(C)C(=O)NCCCN(CCCCNC(=O)OC(C)(C)C)C(=O)OC(C)(C)C)C1` (stereo partly drawn), the pEC50 was 3.95 in assay [1], 4.76 with Leishmania donovani, below 4.38 in the assay with Trypanosoma cruzi [2] and 5.59 in the assay with Trypanosoma brucei [3].

As for `CC(C(=O)NCCCNCCCCN)[C@H]1CCC2C3CC=C4C[C@@H](O)CC[C@]4(C)C3CC[C@@]21C` (stereo partly drawn), the pEC50 is 5.48 in assay [1]; 4.35 with Leishmania donovani; below 4.20 with Trypanosoma cruzi [6]; 5.72 and 6.20 with Trypanosoma brucei [5].

As for `CC(C(=O)NCCCN(CCCCNC(=O)OC(C)(C)C)C(=O)OC(C)(C)C)[C@H]1CCC2C3CC=C4C[C@@H](O)CC[C@]4(C)C3CC[C@@]21C` (stereo partly drawn), the pEC50 was 4.19 in [1]; 4.59 in the assay with Leishmania donovani; below 4.82 in the assay on Trypanosoma cruzi [6]; 5.33 and 5.82 in the assay with Trypanosoma brucei [5].
